Entries after “also recorded” stand apart in the source; their conditions may differ.
Key:
[1] = system: ERK1/2 phosphorylation by MEK1/2; assay: ERK1/2 phosphorylation on activating sites (upstream MEK1/2), immunoblot; assay type: cell-based, human; conditions: HeLa cells, EGF stimulated
Experimental: HeLa cells were pretreated with or without 100 μM of test compounds for 5 min (FIGS. 5A-5B) or 15 min (FIGS. 5C-5E) prior to the addition of epidermal growth factor (EGF or E) to stimulate the ERK pathway or anisomycin (A) to stimulate p38 MAP kinase. In FIGS. 5A-5B HeLa cells were treated with EGF for 5 minutes. […] The far left lane is the control (−) with no EGF. […] The control (C) is EGF only treatment. In FIG. 5B cells pretreated with increasing concentrations of compound 76 were stimulated with EGF. ELK-1 phosphorylation on Ser383 (pELK-1) was measured by immunoblotting. The expression of dually phosphorylated ERK1/2 (ppERK1/2) and a-tubulin as a loading control are also shown. […] The pElk-1 phosphorylation in the presence of the test compounds was compared to the EGF only treatment, which was set at 100%. […] The pRsk-1 phosphorylation in the presence of the test compounds was compared to the EGF only treatment, which was set at 100%. […] The pATF2 phosphorylation in the presence of the test compounds was compared to the anisomycin (A) only treatment, which was set at 100%. The data were reproduced in at least 3 independent experiments.
Prior to harvesting, cells were pre-incubated with the test compounds for 15-20 minutes and then stimulated with EGF or anisomycin to activate the ERK or p38 MAP kinase pathways, respectively. […]

[2] = system: HeLa, A549, or SUM-159 cells; assay: Colony formation assay, screen of test compounds (FIG. 7A); assay type: cell-based, human; design: dose or concentration left out as unconfirmed; conditions: FIG. 7A screen as printed
Experimental: HeLa, A549, or SUM-159 cells were plated at a low density of ˜200-400 cells per well in the absence or presence of putative ERK docking domain inhibitors. Cell colonies were stained with crystal violet and counted after 6-10 days. In FIG. 7A cells were grown on 10 cm plates in the absence (−) or presence of 100 mM of compound 67, 36, 68, 81, or 76. Colony formation dose response in the presence of the indicated concentrations of compound 76 or 81 for Hela cells […] (FIG. 7B), A549 cells (50 mM) (FIG. 7C), or SUM-159 cells (50 mM) (FIG. 7D).
Trypsinized cells were plated on 12 or 24 well plates at low densities (200-400 cells per well) in the absence (DMSO only) or presence of test compounds. In additional experiments, cells were first allowed to adhere to the culture dishes for 16 hours prior to treatment with test compounds. The treated cells received a single dose of the test compounds at the beginning of the experiments. The control and treated cells were grown for 8-14 days to allow the formation of colonies. Cells then were fixed for 10 minutes in 4% paraformaldehyde and stained with 0.2% crystal violet (in 20% methanol) for 1-2 minutes. Following several washes with distilled water, the colonies (containing at least 40 cells) were counted. Each individual experiment was repeated on at least 3 separate occasions.
The effects of the active compounds on cell proliferation and survival were tested using a colony formation assay.

ERK2 = molecular target: T1, ERK2 (Mus musculus, UniProt P63085); assay: Fluorescence titration (quenching of intrinsic ERK2 fluorescence); assay type: binding
T1 construct: (His)x6; made in house; host or cells: bacteria
T1 sequence (P63085 whole entry): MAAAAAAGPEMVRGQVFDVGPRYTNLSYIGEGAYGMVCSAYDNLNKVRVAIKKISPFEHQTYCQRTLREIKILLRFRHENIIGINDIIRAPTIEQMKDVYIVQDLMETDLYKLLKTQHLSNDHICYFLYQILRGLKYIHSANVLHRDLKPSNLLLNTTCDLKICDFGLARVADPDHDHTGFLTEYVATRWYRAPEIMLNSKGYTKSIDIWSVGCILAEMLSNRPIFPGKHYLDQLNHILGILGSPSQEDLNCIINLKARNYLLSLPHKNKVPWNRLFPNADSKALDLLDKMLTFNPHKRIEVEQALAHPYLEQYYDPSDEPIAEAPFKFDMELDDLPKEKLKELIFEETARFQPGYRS
Experimental: Experiments measure the changes in the intrinsic ERK2 fluorescence due to the presence of aromatic amino acids, with the indole group of tryptophan being the major fluorophore with absorption and emission maxima around 280 and 340 nanometers (nm), respectively. Fluorescence spectra were recorded with a Luminescence Spectrometer LS50 (Perkin Elmer, Boston, Mass.). For all experiments, ERK2 protein was diluted into 20 mM Tris-HCl, pH 7.5. Titrations were performed by increasing the test compound concentration while maintaining the ERK2 protein concentration at 3 μM.
The excitation wavelength was 295 nm and fluorescence was monitored from 300 to 500 nm. All reported fluorescence intensities are relative values and are not corrected for wavelength variations in detector response. Dissociation constants, KD, were determined using reciprocal plots, 1/ν vs 1/[I], where ν represents the percent occupied sites calculated assuming fluorescence quenching to be directly proportion to the percentage of occupied binding sites, [I] represents the concentration of the inhibitor compound and the slope of the curve equals the KD (48-49).
ERK2 contains three tryptophans, which have intrinsic fluorescence. Fluorescence quenching of ERK2 by the test compounds is indicative of binding interactions and potential protein conformational changes.

y-intercept of reciprocal plot (indicating a single binding site) (ERK2; 1/ν vs 1/[I] plot): 1.8
Structure (SMILES): CCOc1ccc(C=C2SC(=O)N(CCN)C2=O)cc1 [Compound 76]
effect on ERK1/2 phosphorylation on activating sites [1]: largely unaffected | effect on colony formation / cell proliferation (in words) [2]: completely inhibited | ERK2 fluorescence quenching / binding (in words) (ERK2; fluorescence titration): strong quenching; also recorded: bind to directly ERK2
